Solubility data for 27 compounds are collected here from US6596713B1, “Steroid esters and amides, process for their production and their pharmaceutical use” (priority 1994, dated 2003).

This data set is classed as physicochemical. As to conditions: temperature in which 50 mg of substance is dissolved in 1 ml of a 1:4 benzyl benzoate/castor oil mixture; lower temperature = better solubility.
As for “6′-(4-Fluorophenyl)-17α-(3-hydroxypropyl)-9,11α-dihydro-17β-hydroxy-4′H-naphtho[3′,2′,1′:10,9,11]estr-4-en-3-one [Ref. 6, reference compound]”, the Solubility is 23 °C.

With “6′-(4-Fluorophonyl)-17α-(3-hydroxyprop-1-inyl)-9,11α-dihydro-17β-hydroxy-4′H-naphtho[3′,2′,1′:10,9,11]estr-4-on-3-one [Ref. 5, reference compound]”, the Solubility was 23 °C.

On to `CC(C)C(=O)OC/C=C\[C@]1(O)CC[C@H]2[C@@H]3CCC4=CC(=O)CC[C@@]45Cc4cc(-c6ccc(C#N)cc6)ccc4[C@@H](C[C@@]21C)[C@@H]35` [Example 6, (Z)-6′-(4-Cyanophenyl)-9,11α-dihydro-17β-hydroxy-17α-[3-(1-oxo-2-methylpropoxy)-1-propenyl]-4′H-naphtho[3′,2′,1′:10,9,11]estr-4-en-3-one], for which the Solubility was 100 °C.

Regarding `CC(C)(C)CC(=O)OC/C=C\[C@]1(O)CC[C@H]2[C@@H]3CCC4=CC(=O)CC[C@@]45Cc4cc(-c6ccc(C#N)cc6)ccc4[C@@H](C[C@@]21C)[C@@H]35` [Example 7, (Z)-6′-(4-Cyanophenyl)-9,11α-dihydro-17α-[3-(3,3-dimethyl-1-oxobutoxy)-1-propenyl]-17β-hydroxy-4′H-naphtho[3′,2′,1′:10,9,11]estr-4-en-3-one], the Solubility came to 23 °C.

As to `COC(=O)CCC(=O)OCC=CC1(O)CCC2C3CCC4=CC(=O)CCC45Cc4cc(-c6ccc(C#N)cc6)ccc4C(CC21C)C35` (stereo not drawn) [Example 9, (Z)-6′-(4-Cyanophenyl)-9,11α-dihydro-17α-[3-(1,4-dioxo-4-methoxybutoxy)-1-propenyl]-17β-hydroxy-4′H-naphtho[3′,2′,1′:10,9,11]estr-4-en-3-one], the Solubility was determined as 50 °C.

In the case of `CCOCCC(=O)OCC=CC1(O)CCC2C3CCC4=CC(=O)CCC45Cc4cc(-c6ccc(C#N)cc6)ccc4C(CC21C)C35` (stereo not drawn) [Example 11, (Z)-6′-(4-Cyanophenyl)-9,11α-dihydro-17α-[3-(3-ethoxy-1-oxopropoxy)-1-propenyl]-17βhydroxy-4′H-naphtho[3′,2′,1′:10,9,11]estr-4-en-3-one], the Solubility stood at 100 °C.

With `CC12CC3c4ccc(-c5ccc(C#N)cc5)cc4CC45CCC(=O)C=C4CCC(C35)C1CCC2(O)C=CCOC(=O)CN` (stereo not drawn) [Example 12, (Z)-17α-[3-[(Aminoacetyl)oxy]-1-propenyl]-6′-(4-cyanophenyl)-9,11α-dihydro-17β-hydroxy-4′H-naphtho[3′,2′,1′:10,9,11]estr-4-en-3-one], the Solubility came to 100 °C.

Consider `CC(N)C(=O)OCC=CC1(O)CCC2C3CCC4=CC(=O)CCC45Cc4cc(-c6ccc(C#N)cc6)ccc4C(CC21C)C35` (stereo not drawn) [Example 14, [S-(Z)]-17α-[3-(2-Amino-1-oxopropoxy)-1-propenyl]-6′-(4-cyanophenyl)-9,11α-dihydro-17β-hydroxy-4′H-naphtho [3′,2′,1′:10,9,11]estr-4-en-3-one], for which the Solubility amounted to 23 °C.

`CCCCCCC(=O)OCC=CC1(O)CCC2C3CCC4=CC(=O)CCC45Cc4cc(-c6cccnc6)ccc4C(CC21C)C35` (stereo not drawn) [Example 20, (Z)-9,11α-Dihydro-17βhydroxy-17α-[3-[(1-oxoheptyl)oxy]-1-propenyl]-6′-(3-pyridinyl)-4′H-naphtho[3′,2′,1′:10,9,11]estr-4-en-3-one]: the Solubility was determined as 50 °C.

Regarding `CC(NC(=O)OC(C)(C)C)C(=O)OCCCC1(O)CCC2C3CCC4=CC(=O)CCC4=C3C(c3ccc(N(C)C)cc3)CC21C` [Example 27, (S)-11β-[4-(Dimethylamino)phenyl]-17β-[3-[2-[[(1,1-dimethylethoxy)-carbonyl]amino]-1-oxopropoxy]propyl]-17α-hydroxy-13α-estra-4,9-dien-3-one], the Solubility turned out to be 23 °C.

In the case of `CC(C)[C@H](NC(=O)OC(C)(C)C)C(=O)OCCC[C@@]1(O)CC[C@H]2[C@@H]3CCC4=CC(=O)CCC4=C3[C@@H](c3ccc(N(C)C)cc3)C[C@]21C` [Example 29, (S)-11β-[4-(Dimethylamino)phenyl]-17α-[3-[2-[[(1,1-dimethylethoxy)-carbonyl]amino]-3-methyl-1-oxobutoxy]-1-propyl]-17α-hydroxy-13α-estra-4,9-dien-3-one], the Solubility amounted to 23 °C.

`C[C@H](N)C(=O)OC/C=C\[C@]1(O)CC[C@H]2[C@@H]3CCC4=CC(=O)CC[C@@H]4[C@H]3[C@@H](c3ccc(N(C)C)cc3)C[C@@]21C` [Example 30, [S-(Z)]-17α-[3-(2-Amino-1-oxopropoxy)-1-propenyl]-11β-[4-(dimethylamino)phenyl]-17βhydroxyestr-4-en-3-one]: the Solubility turned out to be 50 °C.

Regarding `CC(NC(=O)OC(C)(C)C)C(=O)OCC=CC1(O)CCC2C3CCC4=CC(=O)CCC4C3C(c3ccc(N(C)C)cc3)CC21C` (stereo not drawn) [Example 31, [S-(Z)]-11β-[4-(Dimethylamino)phenyl]-17α-[3-[2-[[(1,1-dimethylethoxy)carbonyl]amino]-1-oxopropoxy]-1-propenyl]-17β-hydroxyestr-4-en-3-one], the Solubility was found to be 23 °C.

Turning to `CC(C)C(NC(=O)OC(C)(C)C)C(=O)OCC=CC1(O)CCC2C3CCC4=CC(=O)CCC4C3C(c3ccc(N(C)C)cc3)CC21C` (stereo not drawn) [Example 32, [S-(Z)]-11β-[4-(Dimethylamino)phenyl]-17α-[3-[2-[(1,1-dimethylethoxy)carbonyl]amino]-3-methyl-1-oxobutoxyl]-1-propenyl]-17β-hydroxyestr-4-en-3-one], the Solubility was determined as 23 °C.

Turning to `CC(NC(=O)OC(C)(C)C)C(=O)OCC=CC1(O)CCC2C3CCC4=CC(=O)CCC4C3C(c3ccc(-c4ccc(C#N)cc4)cc3)CC21C` (stereo not drawn) [Example 33, [S-(z)]-4′-[17α-[3-[2-[[(1,1-Dimethylethoxy)carbonyl]amino]-1-oxopropoxy]-1-propenyl]-17β-hydroxy-3-oxoestr-4-en-11β-yl][1,1′-biphenyl]-4-carbonitrile], the Solubility stood at 50 °C.

For `CC(C)C(NC(=O)OC(C)(C)C)C(=O)OCC=CC1(O)CCC2C3CCC4=CC(=O)CCC4C3C(c3ccc(-c4ccc(C#N)cc4)cc3)CC21C` (stereo not drawn) [Example 34, [S-(Z)]-4′-[17α-[3-[2-[[(1,1-Dimethylethoxy)carbonyl]amino]-3-methyl-1-oxobutoxy]-1-propenyl]-17β-hydroxy-3-oxoestr-4-en-11β-yl][1,1′-biphenyl]-4-carbonitrile], the Solubility worked out at 50 °C.

Regarding `CN(C)c1ccc(C2CC3(C)C(CCC3(O)CCCOC(=O)CNC(=O)OC(C)(C)C)C3CCC4=CC(=O)CCC4=C23)cc1` [Example 36, (S)-11β-[4-(Dimethylamino)phenyl]-17β-[3-[[[(1,1-dimethylethoxy)carbonyl]amino]acetyloxy]propyl]-17α-hydroxy-13α-estra-4,9-dien-3-one], the Solubility was found to be 23 °C.

Regarding `CN(C)c1ccc(C2CC3(C)C(CCC3(O)C=CCOC(=O)CNC(=O)OC(C)(C)C)C3CCC4=CC(=O)CCC4C23)cc1` (stereo not drawn) [Example 37, [S-(Z)]-11β-[4-(Dimethylamino)phenyl]-17α-[3-[[[(1,1-dimethylethoxy)carbonyl]amino]acetyloxy]-1-propenyl]-17β-hydroxyestr-4-en-3-one], the Solubility was found to be 23 °C.

Consider `CC(C)(C)OC(=O)NCC(=O)OCC=CC1(O)CCC2C3CCC4=CC(=O)CCC4C3C(c3ccc(-c4ccc(C#N)cc4)cc3)CC21C` (stereo not drawn) [Example 38, [S-(Z)]-4′-[17α-[3-[[[(1,1-Dimethylethoxy)carbonyl]-amino]acetyloxy]-1-propenyl]-17β-hydroxy-3-oxoestr-4-en-11β-yl][1,1′-biphenyl]-4-carbonitrile], for which the Solubility stood at 23 °C.

As for `CC(C)C(N)C(=O)OCC=CC1(O)CCC2C3CCC4=CC(=O)CCC4C3C(c3ccc(-c4ccc(C#N)cc4)cc3)CC21C` (stereo not drawn) [Example 39, [S-(Z)]-4′-[17α-[3-[2-Amino-3-methyl-1-oxobutoxy]-1-propenyl]-17β-hydroxy-3-oxoestr-4-en-11β-yl][1,1′-biphenyl]-4-carbonitrile], the Solubility is 50 °C.

As for `CC12CC3c4ccc(-c5ccc(C#N)cc5)cc4CC45CCC(=O)C=C4CCC(C35)C1CCC2(O)C=CCO` (stereo not drawn) [Ref. 1, (Z)-6′-(4-cyanophenyl)-9,11α-dihydro-17β-hydroxy-17α-(3-hydroxy-1-propenyl)-4′H-naphtho[3′,2′,1′:10,9,11]estr-4-en-3-one, reference compound], the Solubility is >>100 °C.

In the case of `C[C@]12C[C@@H]3c4ccc(-c5cccnc5)cc4C[C@]45CCC(=O)C=C4CC[C@H]([C@H]35)[C@@H]1CC[C@@]2(O)/C=C\CO` [Ref. 2, (Z)-9,11α-dihydro-17β-hydroxy-17α-(3-hydroxy-1-propenyl)-6′-(3-pyridinyl)-4′H-naphtho[3′,2′,1′:10,9,11]estr-4-en-3-one, reference compound], the Solubility was >>100 °C.

Regarding “(S)-6′-(4-Fluorophanyl)-9,11α-dihydro-17α-[3-[2-[[(1,1-dimethylethoxy) carbonyl]amino]-1-oxopropoxy]-1-propyl]-17β-hydroxy-4′H-naphtho[3′,2′,1′:10,9,11]estr-4-on-3-one [Example 43]”, the Solubility was 23 °C.

For the compound “(S)-6′-(4-Fluorophanyl)-9,11α-dihydro-17α-[3-[2-[[(1,1-dimethylethoxy)carbonyl]amino]-1-oxopropoxy]-1-propinyl]-17β-hydroxy-4′H-naphtho[3′,2′,1′;10,9,11]estr-4-en-3-one [Example 42]”, the Solubility was determined as 23 °C.

Take “(S-(Z)]-6′-(4-Cyanophenyl)-9,11α-dihydro-17α-[3-[2-[[(1,1-dimethylethoxy)carbonyl]amino]-1-oxopropoxy]-1-propenyl]-17β-hydroxy-4′H-naphtho[3′,2′,1′:10,9,11]estr-4-en-3-one [Example 15]”: the Solubility was 23 °C.

As to “(Z)-6′-(4-Cyanophenyl)-9,11α-dihydro-17α-[3-(1,4-dioxo-4-ethoxybutoxy)-1-propenyl]-17β-hydroxy-4′H-naphtho[3′,2′,1′:10,9,11]estr-4-en-3-one [Example 10]”, the Solubility amounted to 50 °C.

Take “(Z)-6′-(4-Cyanophenyl)-9,11α-dihydro-17α-[3-[[[[(1,1-dimethylethoxy)carbonyl]-amino]acetyl]oxy]-1-propenyl]-17βhydroxy-4′H-naphtho[3′,2′,1′:10,9,11]estr-4-en-3-one [Example 13]”: the Solubility came out at 50 °C.
